Test results: the NIST ThermoML archive (doi:10.1021/je050050p)

Test: xn = mol fraction of the nth substance listed
Settings: Liquid, Vibrating tube method

CN(C)C=O [dimethylformamide] + O=C=O
Settings | mass density [kg/m3]
342.93 K, 22027 kPa, x2 = 0.2876 | 930.22
342.93 K, 23002 kPa, x2 = 0.2876 | 931.1
342.93 K, 24027 kPa, x2 = 0.2876 | 932.06
342.93 K, 25009 kPa, x2 = 0.2876 | 932.97
342.94 K, 7029 kPa, x2 = 0.4502 | 913.19
342.94 K, 8013 kPa, x2 = 0.4502 | 914.64
342.94 K, 9011 kPa, x2 = 0.4502 | 916.09
342.94 K, 9055 kPa, x2 = 0.4068 | 917.41
342.94 K, 9984 kPa, x2 = 0.4068 | 918.63
342.94 K, 9999 kPa, x2 = 0.4502 | 917.51
342.94 K, 11025 kPa, x2 = 0.4502 | 918.98
342.94 K, 11061 kPa, x2 = 0.4068 | 920.01
342.94 K, 11996 kPa, x2 = 0.4068 | 921.23
342.94 K, 12004 kPa, x2 = 0.4502 | 920.36
342.94 K, 13007 kPa, x2 = 0.4502 | 921.76
342.94 K, 13050 kPa, x2 = 0.4068 | 922.57
342.94 K, 13993 kPa, x2 = 0.4502 | 923.08
342.94 K, 14076 kPa, x2 = 0.4068 | 923.82
342.94 K, 15011 kPa, x2 = 0.4068 | 925
342.94 K, 15025 kPa, x2 = 0.4502 | 924.49
342.94 K, 16021 kPa, x2 = 0.4068 | 926.2
342.94 K, 16028 kPa, x2 = 0.4502 | 925.84
342.94 K, 17002 kPa, x2 = 0.4502 | 927.13
342.94 K, 17029 kPa, x2 = 0.4068 | 927.42
342.94 K, 18001 kPa, x2 = 0.4068 | 928.58
342.94 K, 18035 kPa, x2 = 0.4502 | 928.51
342.94 K, 19023 kPa, x2 = 0.4502 | 929.75
342.94 K, 19026 kPa, x2 = 0.4068 | 929.79
342.94 K, 20023 kPa, x2 = 0.4502 | 931
342.94 K, 20073 kPa, x2 = 0.4068 | 931.01
342.94 K, 21008 kPa, x2 = 0.4068 | 932.09
342.94 K, 21013 kPa, x2 = 0.4502 | 932.27
342.94 K, 22005 kPa, x2 = 0.4068 | 933.21
342.94 K, 22036 kPa, x2 = 0.4502 | 933.51
342.94 K, 22992 kPa, x2 = 0.4068 | 934.31
342.94 K, 23032 kPa, x2 = 0.4502 | 934.76
342.94 K, 24003 kPa, x2 = 0.4502 | 935.89
342.94 K, 24049 kPa, x2 = 0.4068 | 935.49
342.94 K, 25041 kPa, x2 = 0.4502 | 937.14
342.94 K, 25062 kPa, x2 = 0.4068 | 936.61
352.81 K, 11994 kPa, x2 = 0.6235 | 863.79
352.81 K, 13017 kPa, x2 = 0.6235 | 868.11
352.81 K, 14003 kPa, x2 = 0.6235 | 871.85
352.81 K, 15051 kPa, x2 = 0.6235 | 875.54
352.81 K, 16021 kPa, x2 = 0.6235 | 878.85
352.81 K, 17011 kPa, x2 = 0.6235 | 882.12
352.81 K, 18025 kPa, x2 = 0.6235 | 885.31
352.81 K, 19034 kPa, x2 = 0.6235 | 888.42
352.81 K, 20027 kPa, x2 = 0.6235 | 891.37
352.81 K, 20969 kPa, x2 = 0.6235 | 894.02
352.81 K, 22044 kPa, x2 = 0.6235 | 897.02
352.81 K, 22987 kPa, x2 = 0.6235 | 899.54
352.81 K, 24010 kPa, x2 = 0.6235 | 902.21
352.81 K, 25062 kPa, x2 = 0.6235 | 904.9
352.86 K, 16031 kPa, x2 = 0.8091 | 799.4
352.86 K, 17002 kPa, x2 = 0.8091 | 806.61
352.86 K, 17024 kPa, x2 = 0.9311 | 684.5
352.86 K, 18005 kPa, x2 = 0.9311 | 702.67
352.86 K, 18047 kPa, x2 = 0.8091 | 814.2
352.86 K, 19028 kPa, x2 = 0.9311 | 718.94
352.86 K, 19050 kPa, x2 = 0.8091 | 820.88
352.86 K, 20001 kPa, x2 = 0.9311 | 732.41
352.86 K, 20005 kPa, x2 = 0.8091 | 827.13
352.86 K, 21006 kPa, x2 = 0.9311 | 744.94
352.86 K, 21045 kPa, x2 = 0.8091 | 833.27
352.86 K, 22024 kPa, x2 = 0.9311 | 756.39
352.86 K, 22052 kPa, x2 = 0.8091 | 839.08
352.86 K, 23012 kPa, x2 = 0.9311 | 766.47
352.86 K, 23029 kPa, x2 = 0.8091 | 844.25
352.86 K, 23999 kPa, x2 = 0.9311 | 775.83
352.86 K, 24015 kPa, x2 = 0.8091 | 849.31
352.86 K, 25019 kPa, x2 = 0.9311 | 784.81
352.86 K, 25051 kPa, x2 = 0.8091 | 854.32
352.87 K, 7031 kPa, x2 = 0.2876 | 902.49
352.87 K, 8016 kPa, x2 = 0.2876 | 903.63
352.87 K, 9024 kPa, x2 = 0.2876 | 904.79
352.87 K, 10008 kPa, x2 = 0.4268 | 903.63
352.87 K, 10027 kPa, x2 = 0.2876 | 905.96
352.87 K, 11005 kPa, x2 = 0.4268 | 905.13
352.87 K, 11011 kPa, x2 = 0.2876 | 907.05
352.87 K, 12022 kPa, x2 = 0.2876 | 908.2
352.87 K, 12055 kPa, x2 = 0.4268 | 906.66
352.87 K, 13022 kPa, x2 = 0.2876 | 909.31
352.87 K, 13027 kPa, x2 = 0.4268 | 908.06
352.87 K, 13995 kPa, x2 = 0.4268 | 909.43
352.87 K, 14004 kPa, x2 = 0.2876 | 910.39
352.87 K, 15002 kPa, x2 = 0.4268 | 910.84
352.87 K, 15013 kPa, x2 = 0.2876 | 911.48
352.87 K, 16013 kPa, x2 = 0.2876 | 912.56
352.87 K, 16029 kPa, x2 = 0.4268 | 912.27
352.87 K, 17030 kPa, x2 = 0.4268 | 913.63
352.87 K, 17044 kPa, x2 = 0.2876 | 913.64
352.87 K, 18010 kPa, x2 = 0.4268 | 914.96
352.87 K, 18012 kPa, x2 = 0.2876 | 914.66
352.87 K, 19003 kPa, x2 = 0.4268 | 916.29
352.87 K, 19015 kPa, x2 = 0.2876 | 915.7
352.87 K, 20024 kPa, x2 = 0.2876 | 916.74
352.87 K, 20032 kPa, x2 = 0.4268 | 917.62
352.87 K, 21004 kPa, x2 = 0.2876 | 917.74
352.87 K, 21047 kPa, x2 = 0.4268 | 918.93
352.87 K, 22005 kPa, x2 = 0.4268 | 920.15
352.87 K, 22030 kPa, x2 = 0.2876 | 918.79
352.87 K, 23001 kPa, x2 = 0.4268 | 921.41
352.87 K, 23027 kPa, x2 = 0.2876 | 919.77
352.87 K, 24014 kPa, x2 = 0.4268 | 922.68
352.87 K, 24021 kPa, x2 = 0.2876 | 920.77
352.87 K, 25022 kPa, x2 = 0.2876 | 921.74
352.87 K, 25024 kPa, x2 = 0.4268 | 923.93
362.68 K, 13997 kPa, x2 = 0.6235 | 842.98
362.68 K, 15019 kPa, x2 = 0.6235 | 847.62
362.68 K, 16021 kPa, x2 = 0.6235 | 851.83
362.68 K, 16992 kPa, x2 = 0.6235 | 855.82
362.68 K, 18022 kPa, x2 = 0.6235 | 859.78
362.68 K, 19000 kPa, x2 = 0.6235 | 863.4
362.68 K, 20047 kPa, x2 = 0.6235 | 867.1
362.68 K, 21057 kPa, x2 = 0.6235 | 870.49
362.68 K, 22005 kPa, x2 = 0.6235 | 873.58
362.68 K, 22981 kPa, x2 = 0.6235 | 876.69
362.68 K, 24005 kPa, x2 = 0.6235 | 879.78
362.68 K, 24998 kPa, x2 = 0.6235 | 882.71
362.73 K, 18005 kPa, x2 = 0.9311 | 641.86
362.73 K, 19024 kPa, x2 = 0.9311 | 662.81
362.73 K, 20021 kPa, x2 = 0.9311 | 680.44
362.73 K, 21028 kPa, x2 = 0.9311 | 696.02
362.73 K, 22008 kPa, x2 = 0.9311 | 709.54
362.73 K, 23017 kPa, x2 = 0.9311 | 722.12
362.73 K, 24029 kPa, x2 = 0.9311 | 733.65
362.73 K, 25019 kPa, x2 = 0.9311 | 744.01
362.75 K, 8032 kPa, x2 = 0.2876 | 891.2
362.75 K, 9018 kPa, x2 = 0.2876 | 892.47
362.75 K, 9986 kPa, x2 = 0.2876 | 893.65
362.75 K, 10994 kPa, x2 = 0.2876 | 894.89
362.75 K, 11002 kPa, x2 = 0.4268 | 890.57
362.75 K, 12000 kPa, x2 = 0.2876 | 896.09
362.75 K, 12008 kPa, x2 = 0.4268 | 892.17
362.75 K, 13010 kPa, x2 = 0.4268 | 893.74
362.75 K, 13037 kPa, x2 = 0.2876 | 897.35
362.75 K, 14000 kPa, x2 = 0.4268 | 895.32
362.75 K, 14023 kPa, x2 = 0.2876 | 898.48
362.75 K, 15027 kPa, x2 = 0.4268 | 896.84
362.75 K, 15039 kPa, x2 = 0.2876 | 899.66
362.75 K, 16011 kPa, x2 = 0.2876 | 900.77
362.75 K, 16015 kPa, x2 = 0.4268 | 898.33
362.75 K, 17017 kPa, x2 = 0.4268 | 899.81
362.75 K, 17019 kPa, x2 = 0.2876 | 901.92
362.75 K, 18012 kPa, x2 = 0.2876 | 903.04
362.75 K, 18013 kPa, x2 = 0.4268 | 901.24
362.75 K, 19006 kPa, x2 = 0.2876 | 904.14
362.75 K, 19024 kPa, x2 = 0.4268 | 902.72
362.75 K, 20028 kPa, x2 = 0.4268 | 904.14
362.75 K, 20035 kPa, x2 = 0.2876 | 905.27
362.75 K, 20994 kPa, x2 = 0.2876 | 906.3
362.75 K, 21039 kPa, x2 = 0.4268 | 905.51
362.75 K, 22014 kPa, x2 = 0.4268 | 906.89
362.75 K, 22029 kPa, x2 = 0.2876 | 907.43
362.75 K, 23004 kPa, x2 = 0.2876 | 908.45
362.75 K, 23027 kPa, x2 = 0.4268 | 908.24
362.75 K, 24034 kPa, x2 = 0.2876 | 909.57
362.75 K, 25002 kPa, x2 = 0.2876 | 910.55
362.79 K, 18033 kPa, x2 = 0.8091 | 777.33
362.79 K, 19005 kPa, x2 = 0.8091 | 784.9
362.79 K, 20003 kPa, x2 = 0.8091 | 792.49
362.79 K, 21014 kPa, x2 = 0.8091 | 799.75
362.79 K, 22017 kPa, x2 = 0.8091 | 806.5
362.79 K, 23043 kPa, x2 = 0.8091 | 813.1
362.79 K, 24052 kPa, x2 = 0.8091 | 819.28
362.79 K, 25083 kPa, x2 = 0.8091 | 825.05
